biological target: T1, CETP (Homo sapiens, UniProt P11597); test: Assay of CETP Inhibition using Purified Components (Reconstituted Buffer Assay); assay type: biochemical; design: made in house; host or cells: CHO cells (serum-free conditioned medium); conditions: IC50, Inhibition of CETP activity in reconstituted buffer assay; transfer of [3H]CE from HDL to LDL
T1 sequence (P11597 18-493): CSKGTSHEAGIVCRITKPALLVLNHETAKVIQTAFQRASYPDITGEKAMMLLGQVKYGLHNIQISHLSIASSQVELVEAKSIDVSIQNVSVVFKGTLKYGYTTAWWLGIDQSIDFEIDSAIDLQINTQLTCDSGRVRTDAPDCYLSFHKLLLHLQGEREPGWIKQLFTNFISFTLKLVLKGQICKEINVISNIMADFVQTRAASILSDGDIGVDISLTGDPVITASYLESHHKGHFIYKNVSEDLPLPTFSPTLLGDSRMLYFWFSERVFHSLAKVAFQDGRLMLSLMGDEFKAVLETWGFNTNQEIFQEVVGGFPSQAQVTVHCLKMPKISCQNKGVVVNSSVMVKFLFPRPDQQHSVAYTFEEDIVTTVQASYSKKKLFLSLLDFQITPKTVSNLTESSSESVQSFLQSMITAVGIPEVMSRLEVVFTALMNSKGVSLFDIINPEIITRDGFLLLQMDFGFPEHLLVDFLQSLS
Protocol: Assay of CETP Inhibition using Purified Components (Reconstituted Buffer Assay)
The ability of compounds to inhibit CETP activity was assessed using an in vitro assay that measured the rate of transfer of radiolabeled cholesteryl ester ([^3H]CE) from HDL donor particles to LDL acceptor particles. Details of the assay are provided by Glenn, K. C. et al. (Glenn and Melton, “Quantification of Cholesteryl Ester Transfer Protein (CETP): A) CETP Activity and B) Immunochemical Assay of CETP Protein,” Meth. Enzymol., 263, 339-351 (1996)). Human recombinant CETP can be obtained from the serum-free conditioned medium of CHO cells transfected with a cDNA for CETP and purified as described by Wang, S. et al. (J. Biol. Chem. 267, 17487-17490 (1992)). To measure CETP activity, [^3H]CE-labeled-HDL, LDL, CETP and assay buffer (50 mM tris(hydroxymethyl)aminomethane, pH 7.4; 150 mM sodium chloride; 2 mM ethylenediamine-tetraacetic acid (EDTA); 1% bovine serum albumin) were incubated in a final volume of 200 μL, for 2 hours at 37° C. in 96 well plates. […] The inhibitors were then diluted 1:1 with CETP in assay buffer, and then 25 μL of that solution was mixed with 175 μL of lipoprotein pool for assay. Following incubation, LDL was differentially precipitated by the addition of 50 μL of 1% (w/v) dextran sulfate/0.5 M magnesium chloride, mixed by vortex, and incubated at room temperature for 10 minutes. A potion of the solution (200 μL) was transferred to a filter plate (Millipore). After filtration, the radioactivity present in the precipitated LDL was measured by liquid scintillation counting.
This value was defined as the IC50.
Examples of IC50 values determined by these methods are specified in Table 9.

Row | Structure (SMILES) | IC50 [µM]
1 | OC(CN(Cc1cccc(OC(F)(F)F)c1)c1ccc(Oc2ccccc2)cc1)C(F)(F)F (stereo not drawn) [Example 133] | 25
2 | Cc1cccc(N(Cc2cccc(C(F)(F)F)c2)CC(O)C(F)(F)F)c1 (stereo not drawn) [Example 25] | 10

same assay, conditions: Inhibition of CETP activity in reconstituted buffer assay; transfer of [3H]CE from HDL to LDL; read-out: IC50

Row | Structure (SMILES) | IC50 [µM]
3 | COc1cccc(NC(=O)Nc2cccc(N(Cc3cccc(OC(F)(F)C(F)F)c3)CC(O)C(F)(F)F)c2)c1 (stereo not drawn) [Example 547] | > 50
4 | OC(CN(Cc1ccc(Cl)cc1)Cc1cccc(C(F)(F)F)c1)C(F)(F)F (stereo not drawn) [compound 186] | 15
5 | COc1ccc(N(Cc2ccc(C)cc2)CC(O)C(F)(F)F)cc1 (stereo not drawn) [Example 6] | > 100
6 | OC(CN(Cc1cccc(OC(F)(F)C(F)F)c1)c1cccc(Oc2cccc(F)c2F)c1)C(F)(F)F (stereo not drawn) [Example 238] | 0.12
7 | CC(C)(C)C(=O)COc1cccc(N(Cc2cccc(OC(F)(F)C(F)F)c2)CC(O)C(F)(F)F)c1 (stereo not drawn) [Example 513] | 2.1
8 | OC(CN(Cc1cccc(OC(F)(F)C(F)F)c1)c1cccc(I)c1)C(F)(F)F (stereo not drawn) [Example 44] | 2.7
9 | CN(C)CCOc1cccc(N(Cc2cccc(OC(F)(F)C(F)F)c2)CC(O)C(F)(F)F)c1 (stereo not drawn) [Example 511] | > 50
10 | OC(CN(Cc1cccc(Oc2ccccc2)c1)c1ccc(Oc2ccccc2)cc1)C(F)(F)F (stereo not drawn) [Example 151] | > 100
11 | CCC(=O)c1cccc(CN(CC(O)C(F)(F)F)c2cccc(Oc3ccccc3)c2)c1 (stereo not drawn) [Example 620, 1-[3-[[(3-phenoxyphenyl)(3,3,3-trifluoro-2-hydroxypropyl)-amino]methyl]phenyl]-1-propanone] | 5
12 | O=C(Nc1cccc(N(Cc2cccc(OC(F)(F)C(F)F)c2)CC(O)C(F)(F)F)c1)c1cccnc1 (stereo not drawn) [Example 539] | > 50
13 | OC(CN(Cc1cccc(Oc2ccc(Cl)cc2)c1)c1cccc(F)c1)C(F)(F)F (stereo not drawn) [Example 676] | > 100
14 | OC(CN(Cc1cccc(Br)c1)Cc1cccc(OC(F)(F)F)c1)C(F)(F)F (stereo not drawn) [compound 194] | 7
15 | O=[N+]([O-])c1cccc(CN(CC(O)C(F)(F)F)c2cccc(OC(F)(F)F)c2)c1 (stereo not drawn) [Example 335] | 40
16 | O=C(NCc1cccc(OC(F)(F)F)c1)c1cccc(N(Cc2cccc(OC(F)(F)C(F)F)c2)CC(O)C(F)(F)F)c1 (stereo not drawn) [Example 466] | 12
17 | Cc1ccc(CN(CC(O)C(F)(F)F)c2ccccc2C(F)(F)F)cc1 (stereo not drawn) [Example 673] | > 100
18 | OC(CN(Cc1cccc(OC(F)(F)C(F)F)c1)c1cccc(Oc2ccc3[nH]ccc3c2)c1)C(F)(F)F (stereo not drawn) [Example 288] | 12
19 | OC(CN(Cc1ccc(OC(F)(F)F)cc1)c1cccc(C(F)(F)F)c1)C(F)(F)F (stereo not drawn) [Example 54] | 15
20 | O=S(=O)(CCOc1cccc(N(Cc2cccc(OC(F)(F)C(F)F)c2)CC(O)C(F)(F)F)c1)c1ccccc1 (stereo not drawn) [Example 497] | 42
21 | OC(CN(Cc1cccc(C(F)(F)F)c1)c1cccc(Cl)c1)C(F)(F)F (stereo not drawn) [Example 38] | 13
22 | Cc1cc(C(=O)c2cccc(N(Cc3cccc(OC(F)(F)C(F)F)c3)CC(O)C(F)(F)F)c2)ccc1F (stereo not drawn) [Example 578, (4-Fluoro-3-methylphenyl) [3-[[[(1,1,2,2-tetrafluoroethoxy)phenyl]methyl](3,3,3-trifluoro-2-hydroxypropyl)amino]phenyl]methanone] | 0.76
23 | OC(CN(Cc1cccc(OC(F)(F)C(F)F)c1)c1cccc(SCc2cc(Cl)cs2)c1)C(F)(F)F (stereo not drawn) [Example 480] | 1.9
24 | OC(CN(Cc1cccc(OC(F)(F)C(F)F)c1)c1cccc(NCc2ccc(F)cc2)c1)C(F)(F)F (stereo not drawn) [Example 543] | 2.7
25 | OC(CN(Cc1cccc(Cl)c1)Cc1cccc(OC(F)(F)F)c1)C(F)(F)F (stereo not drawn) [compound 193] | 10
26 | O=C(Nc1cccc(N(Cc2cccc(OC(F)(F)C(F)F)c2)CC(O)C(F)(F)F)c1)c1ccccc1 (stereo not drawn) [Example 536] | > 50
27 | CC(=O)c1cccc(Oc2cccc(N(Cc3cccc(OC(F)(F)C(F)F)c3)CC(O)C(F)(F)F)c2)c1 (stereo not drawn) [Example 239] | 6.1
28 | N#Cc1cccc(COc2cccc(N(Cc3cccc(OC(F)(F)C(F)F)c3)CC(O)C(F)(F)F)c2)c1 (stereo not drawn) [Example 383] | 2.3

Row | Structure (SMILES) | IC50 [µM]
29 | Cc1ccc(N(CCC#N)c2cccc(N(Cc3cccc(OC(F)(F)C(F)F)c3)CC(O)C(F)(F)F)c2)cc1 (stereo not drawn) [Example 314] | 14
30 | OC(CN(Cc1cccc(OC(F)(F)C(F)F)c1)c1cccc(-c2cccs2)c1)C(F)(F)F (stereo not drawn) [Example 452] | 2.7
31 | OC(CN(Cc1cccc(OC(F)(F)C(F)F)c1)c1cccc(Cc2cccc(C(F)(F)F)c2)c1)C(F)(F)F (stereo not drawn) [Example 514, 3-[[[3-(1,1,2,2-tetrafluoroethoxy)phenyl]methyl][3-[[(3-trifluoromethyl)-phenyl]methyl]phenyl]amino]-1,1,1-trifluoro-2-propanol] | 0.34
32 | OC(CN(Cc1ccc(Cl)cc1)Cc1ccc(C(F)(F)F)cc1)C(F)(F)F (stereo not drawn) [compound 173] | 20
33 | Cc1ccc(N(Cc2cccc(C)c2)CC(O)C(F)(F)F)cc1 (stereo not drawn) [Example 5] | > 100
34 | OC(CNc1cccc(Oc2ccccc2)c1)C(F)(F)F (stereo not drawn) [588B] | > 100
35 | OC(CN(Cc1ccc(-c2ccccc2)cc1)c1cccc(C(F)(F)F)c1)C(F)(F)F (stereo not drawn) [Example 143] | 80
36 | OC(CN(Cc1cccc(OC(F)(F)C(F)F)c1)c1ccc2c(c1)oc1ccccc12)C(F)(F)F (stereo not drawn) [Example 207] | 90
37 | COc1ccc(-c2cccc(N(Cc3cccc(OC(F)(F)C(F)F)c3)CC(O)C(F)(F)F)c2)cc1C (stereo not drawn) [Example 562] | 2.1
38 | O=C(COc1cccc(N(Cc2cccc(OC(F)(F)C(F)F)c2)CC(O)C(F)(F)F)c1)c1ccccc1 (stereo not drawn) [Example 503] | 2.1
39 | CCOc1ccc(CN(CC(O)C(F)(F)F)c2cccc(OC(F)(F)F)c2)cc1OCC (stereo not drawn) [Example 138] | 30
40 | Cc1ccc(CN(CC(O)C(F)(F)F)c2cccc(C(F)(F)F)c2F)cc1 (stereo not drawn) [Example 679] | > 100
41 | OC(CN(Cc1ccc(Oc2ccccc2)cc1)c1ccc(Oc2ccccc2)cc1)C(F)(F)F (stereo not drawn) [Example 154] | > 100
42 | Cc1cccc(N(Cc2ccc(C(F)(F)F)cc2)CC(O)C(F)(F)F)c1 (stereo not drawn) [Example 39] | 15
43 | OC(CN(Cc1cccc(OC(F)(F)F)c1)c1cccc(Cc2cccc(N(Cc3cccc(OC(F)(F)F)c3)CC(O)C(F)(F)F)c2)c1)C(F)(F)F (stereo not drawn) [Example 665, 1,1′-[methylenebis[3,1-phenylene[[[3-(trifluoromethoxy)phenyl]methyl]imino]]]bis[3,3,3-trifluoro-2-propanol]] | 80
44 | OC(CN(Cc1cccc(C2CCCC2)c1)c1cccc(Oc2ccccc2)c1)C(F)(F)F (stereo not drawn) [Example 607, 3-[(3-phenoxyphenyl)[[3-cyclopentylphenyl]methyl]amino]-1,1,1-trifluoro-2-propanol] | 0.31
45 | CC(=O)Oc1ccc(CN(CC(O)C(F)(F)F)c2cccc(OC(F)(F)F)c2)cc1OC(C)=O (stereo not drawn) [Example 118] | 45
46 | Cc1cccc(CN(CC(O)C(F)(F)F)c2cccc(F)c2F)c1 (stereo not drawn) [Example 678] | > 100
47 | OC(CN(Cc1ccc(Cl)cc1)Cc1ccccc1C(F)(F)F)C(F)(F)F (stereo not drawn) [compound 176] | > 100
48 | Cc1cc(-c2cccc(N(Cc3cccc(OC(F)(F)C(F)F)c3)CC(O)C(F)(F)F)c2)ccc1F (stereo not drawn) [Example 569] | 1.2
49 | OC(CN(Cc1cccc(OC(F)(F)C(F)F)c1)c1cc(Oc2ccc(F)cc2)cc(C(F)(F)F)c1)C(F)(F)F (stereo not drawn) [compound 644] | 1.6
50 | Cc1cccnc1-c1cccc(N(Cc2cccc(OC(F)(F)C(F)F)c2)CC(O)C(F)(F)F)c1 (stereo not drawn) [Example 455] | 22
51 | OC(CN(Cc1cc(F)cc(F)c1)c1cccc(OC(F)(F)F)c1)C(F)(F)F (stereo not drawn) [Example 328] | > 100
52 | OC(CN(Cc1cccc(C(F)(F)F)c1)c1ccc(Br)c(C(F)(F)F)c1)C(F)(F)F (stereo not drawn) [Example 625, 3-[4-bromo-3-(trifluoromethyl)phenyl[[3-(trifluoromethyl)-phenyl]methyl]amino]-1,1,1-trifluoro-2-propanol] | 8.3
53 | Cc1ccc(Cc2cccc(N(Cc3cccc(OC(F)(F)C(F)F)c3)CC(O)C(F)(F)F)c2)cc1 (stereo not drawn) [Example 517] | 1.6
54 | OC(CN(Cc1cccc(OC(F)(F)C(F)F)c1)c1cccc(-c2ccc(Cl)c(Cl)c2)c1)C(F)(F)F (stereo not drawn) [Example 561] | 1.8

Source: patent publication US6723753B2, “Substituted n-benzyl-n-phenyl aminoalcohol compounds useful for inhibiting cholesteryl ester transfer protein activity” (Pharmacia Corporation, priority 2002, dated 2004)
